Laboratory results from patent US10125100B2, “Kinase inhibitors” (Respivert Limited, priority 2014, dated 2018).

Key:
p38 MAPKα (MAPK14) = p38 MAPKα (MAPK14) (Homo sapiens (Human), UniProt Q16539); assay: p38 MAPKα enzyme inhibition (Method 2), Z-LYTE FRET; format: biochemical
Procedure: (§1) The enzyme inhibitory activities of compounds disclosed herein are determined by FRET using synthetic peptides labelled with both donor and acceptor fluorophores (Z-LYTE, Invitrogen Ltd., Paisley, UK).
The following two assay variants can be used for determination of p38 MAPKα inhibition.
The inhibitory activities of test compounds against the p38 MAPKα isoform (MAPK14: Invitrogen) are evaluated indirectly by determining the level of activation/phosphorylation of the down-stream molecule, MAPKAP-K2. The p38 MAPKα protein (80 ng/mL, 2.5 μL) is mixed with the test compound (2.5 μL of either 4 μg/mL, 0.4 μg/mL, 0.04 μg/mL or 0.004 μg/mL) for 2 hr at RT. […] The mixture is incubated for 1 hr at RT. Development reagent (protease, 5 μL) is added for 1 hr prior to detection in a fluorescence microplate reader (Varioskan® Flash, ThermoFisher Scientific).
This method follows the same steps as Method 1 above, but utilises a higher concentration of the p38 MAPKα protein (2.5 μL of 200 ng/mL protein instead of 2.5 μL of 80 ng/mL protein) for mixing with the test compound (tested at either 1 μg/mL, 0.1 μg/mL, 0.01 μg/mL or 0.001 μg/mL).
(§2) In all cases, the site-specific protease cleaves non-phosphorylated peptide only and eliminates the FRET signal. Phosphorylation levels of each reaction are calculated using the ratio of coumarin emission (donor) over fluorescein emission (acceptor), for which high ratios indicate high phosphorylation and low ratios indicate low phosphorylation levels.

c-Src = c-Src (Homo sapiens (Human), UniProt P12931); assay: c-Src enzyme inhibition, Z-LYTE FRET; format: biochemical
Chain of c-Src (P12931 whole entry, looked up): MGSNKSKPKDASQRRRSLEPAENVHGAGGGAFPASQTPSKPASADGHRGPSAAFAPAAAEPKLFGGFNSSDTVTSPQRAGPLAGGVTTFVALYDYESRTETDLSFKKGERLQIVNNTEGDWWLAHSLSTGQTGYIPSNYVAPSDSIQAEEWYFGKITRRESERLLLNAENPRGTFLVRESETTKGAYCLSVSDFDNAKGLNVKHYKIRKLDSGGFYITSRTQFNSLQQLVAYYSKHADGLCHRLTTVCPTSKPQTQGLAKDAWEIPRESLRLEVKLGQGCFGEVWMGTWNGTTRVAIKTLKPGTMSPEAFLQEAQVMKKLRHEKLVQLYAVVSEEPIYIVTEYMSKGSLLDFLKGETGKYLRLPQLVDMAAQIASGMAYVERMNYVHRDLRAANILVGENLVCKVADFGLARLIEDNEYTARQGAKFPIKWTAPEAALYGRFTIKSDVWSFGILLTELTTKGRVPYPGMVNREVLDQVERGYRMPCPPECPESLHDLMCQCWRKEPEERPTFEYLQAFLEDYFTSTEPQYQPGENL
Procedure: as §1
(§3) The inhibitory activities of compounds of the invention against c-Src and Syk enzymes (Invitrogen), are evaluated in a similar fashion to that described hereinabove. The relevant enzyme (3000 ng/mL or 2000 ng/mL respectively, 2.5 μL) is incubated with the test compound (either 1 μg/mL, 0.1 μg/mL, 0.01 μg/mL, or 0.001 μg/mL, 2.5 μL each) for 2 hr at RT. The FRET peptides (8 μM, 2.5 μL), and appropriate ATP solutions (2.5 μL, 800 μM for c-Src, and 60 μM ATP for Syk) are then added to the enzymes/compound mixtures and the mixture incubated for 1 hr. Development reagent (protease, 5 μL) is added for 1 hr prior to detection in a fluorescence microplate reader (Varioskan® Flash, ThermoFisher Scientific).
as §2

Syk = Syk (Homo sapiens (Human), UniProt P43405); assay: Syk enzyme inhibition, Z-LYTE FRET; format: biochemical
Procedure: as §1
as §3, with “The” for “The inhibitory activities of compounds of the invention against c-Src and Syk enzymes (Invitrogen), are evaluated in a similar fashion to that described hereinabove. The”
as §2

mitosis in PBMCs = assay: (g) Cell mitosis assay; format: cell-based; conditions: Homo sapiens, PBMC, 5 μg/mL
Procedure: Peripheral blood mononucleocytes (PBMCs) from healthy subjects are separated from whole blood (Quintiles, London, UK) using a density gradient (Histopaque®-1077, Sigma-Aldrich, Poole, UK). The PBMCs (3 million cells per sample) are subsequently treated with 2% PHA (phytohaemagglutinin, Sigma-Aldrich, Poole, UK) for 48 hr, followed by a 20 hr exposure to varying concentrations of test compounds. At 2 hr before collection, PBMCs are treated with demecolcine (0.1 μg/mL; Invitrogen, Paisley, UK) to arrest cells in metaphase. To observe mitotic cells, PBMCs are permeabilized and fixed by adding Intraprep (50 μL; Beckman Coulter, France), and stained with anti-phospho-histone 3 ([…]; #9701; Cell Signalling, Danvers, Mass.) and propidium iodide (1 mg/mL; Sigma-Aldrich, Poole, UK) as previously described (Muehlbauer P. A. and Schuler M. J., Mutation Research, 2003, 537:117-130). Fluorescence is observed using an ATTUNE flow cytometer (Invitrogen, Paisley, UK), gating for lymphocytes.

Jurkat cells = assay: (r) Cell cytotoxicity assay; format: cell-based, human; conditions: 24 hours
How it was run: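 Viability read by flow cytometry as the fraction of propidium iodide-negative cells (7.5 μg/mL PI, 15 min), relative to 1.0% DMSO control. Beforehand, 1×10^5 Jurkat cells in RPMI/10% FBS were treated 24 h at 37° C., 5% CO2 with test compound at final 20, 5 or 1 μg/mL.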

Chain of p38 MAPKα (MAPK14) (Q16539 whole entry): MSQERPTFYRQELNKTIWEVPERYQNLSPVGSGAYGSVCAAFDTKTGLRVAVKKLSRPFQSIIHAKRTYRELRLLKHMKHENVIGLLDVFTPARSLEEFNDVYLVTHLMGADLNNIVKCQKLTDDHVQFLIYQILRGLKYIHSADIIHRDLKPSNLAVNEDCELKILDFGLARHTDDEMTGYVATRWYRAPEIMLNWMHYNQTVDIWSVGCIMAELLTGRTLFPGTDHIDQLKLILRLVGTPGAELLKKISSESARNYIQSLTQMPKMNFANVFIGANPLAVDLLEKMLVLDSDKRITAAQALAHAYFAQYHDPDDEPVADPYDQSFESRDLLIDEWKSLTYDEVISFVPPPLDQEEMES

IC50 (p38 MAPKα (MAPK14)) [µM]	IC50 (c-Src) [µM]	IC50 (Syk) [µM]	Structure (SMILES)	inhibition at 5 µg/mL (mitosis in PBMCs) [%]	% Viability at 1 μg/mL (Jurkat cells) [%]	% Viability at 5 μg/mL (Jurkat cells) [%]	% Viability at 20 μg/mL (Jurkat cells) [%]
0.02	0.024	0.061	COc1cc(Nc2cc(Oc3ccc(NC(=O)Nc4cc(C(C)(C)C)cc(NS(C)(=O)=O)c4OC)c4ccccc34)ccn2)ccc1C(=O)NCCCN1CCN(C)CC1 [17(aa), 4-[[4-[[4-[[5-tert-butyl-3-(methanesulfonamido)-2-methoxy-phenyl]carbamoylamino]-1-naphthyl]oxy]-2-pyridyl]amino]-2-methoxy-N-[3-(4-methylpiperazin-1-yl)propyl]benzamide]	77.7	–	–	–
–	–	–	COCCN(C)CCNC(=O)c1ccc(Nc2cc(Oc3ccc(NC(=O)Nc4cc(C(C)(C)C)cc(NS(C)(=O)=O)c4OC)c4ccccc34)ccn2)cc1OC [17(ad), 4-[[4-[[4-[[5-tert-butyl-3-(methanesulfonamido)-2-methoxy-phenyl]carbamoylamino]-1-naphthyl]oxy]-2-pyridyl]amino]-2-methoxy-N-[2-[2-methoxyethyl(methyl)amino]ethyl]-benzamide]	93.4	101.4	6.3	0.4
–	0.014	0.086	COc1cc(Nc2cc(Oc3ccc(NC(=O)Nc4cc(C(C)(C)C)cc(NS(C)(=O)=O)c4OC)c4ccccc34)ccn2)ccc1C(=O)NCCN1CCCOCC1 [17(ai), 4-[[4-[[4-[[5-tert-butyl-3-(methanesulfonamido)-2-methoxy-phenyl]carbamoylamino]-1-naphthyl]oxy]-2-pyridyl]amino]-2-methoxy-N-[2-(1,4-oxazepan-4-yl)ethyl]benzamide]	89.1	–	–	–
–	0.012	0.033	COc1cc(Nc2cc(Oc3ccc(NC(=O)Nc4cc(C(C)(C)C)cc(NS(C)(=O)=O)c4OC)c4ccccc34)ccn2)ccc1C(=O)NCCCN1CCCOCC1 [17(aj), 4-[[4-[[4-[[5-tert-butyl-3-(methanesulfonamido)-2-methoxy-phenyl]carbamoylamino]-1-naphthyl]oxy]-2-pyridyl]amino]-2-methoxy-N-[3-(1,4-oxazepan-4-yl)propyl]benzamide]	94.9	–	–	–
–	0.012	0.085	COc1cc(Nc2cc(Oc3ccc(NC(=O)Nc4cc(C(C)(C)C)cc(NS(C)(=O)=O)c4OC)c4ccccc34)ccn2)ccc1C(=O)NCC1CCN(C)CC1 [17(ak), 4-[[4-[[4-[[5-tert-butyl-3-(methanesulfonamido)-2-methoxy-phenyl]carbamoylamino]-1-naphthyl]oxy]-2-pyridyl]amino]-2-methoxy-N-[(1-methyl-4-piperidyl)methyl]benzamide]	74.7	99.0	69.5	0.4
0.021	0.016	0.039	COc1cc(Nc2cc(Oc3ccc(NC(=O)Nc4cc(C(C)(C)C)cc(NS(C)(=O)=O)c4OC)c4ccccc34)ccn2)ccc1C(=O)NC1CCN(C)CC1 [17(j), 4-[[4-[[4-[[5-tert-butyl-3-(methanesulfonamido)-2-methoxy-phenyl]carbamoylamino]-1-naphthyl]oxy]-2-pyridyl]amino]-2-methoxy-N-(1-methyl-4-piperidyl)benzamide]	85.4	–	–	–
0.156	0.074	0.336	COc1cc(Nc2cc(Oc3ccc(NC(=O)Nc4cc(C(C)(C)C)cc(NS(C)(=O)=O)c4OC)c4ccccc34)ccn2)ccc1C(=O)NCCN1CCOCC1(C)C [17(k), 4-[[4-[[4-[[5-tert-butyl-3-(methanesulfonamido)-2-methoxy-phenyl]carbamoylamino]-1-naphthyl]oxy]-2-pyridyl]amino]-N-[2-(3,3-dimethylmorpholin-4-yl)ethyl]-2-methoxy-benzamide]	24	–	–	–
0.025	0.019	0.192	COc1cc(Nc2cc(Oc3ccc(NC(=O)Nc4cc(C(C)(C)C)cc(NS(C)(=O)=O)c4OC)c4ccccc34)ccn2)ccc1C(=O)NCCN1CCC(O)CC1 [17(m), 4-[[4-[[4-[[5-tert-butyl-3-(methanesulfonamido)-2-methoxy-phenyl]carbamoylamino]-1-naphthyl]oxy]-2-pyridyl]amino]-N-[2-(4-hydroxy-1-piperidyl)ethyl]-2-methoxy-benzamide]	80.5	–	–	–
0.119	0.037	0.102	COc1cc(Nc2cc(Oc3ccc(NC(=O)Nc4cc(C(C)(C)C)cc(NS(C)(=O)=O)c4OC)c4ccccc34)ccn2)ccc1C(=O)NCCN1CCS(=O)(=O)CC1 [17(r), 4-[[4-[[4-[[5-tert-butyl-3-(methanesulfonamido)-2-methoxy-phenyl]carbamoylamino]-1-naphthyl]oxy]-2-pyridyl]amino]-N-[2-(1,1-dioxo-1,4-thiazinan-4-yl)ethyl]-2-methoxy-benzamide]	36.6	–	–	–
0.116	0.043	0.232	COc1cc(Nc2cc(Oc3ccc(NC(=O)Nc4cc(C(C)(C)C)cc(NS(C)(=O)=O)c4OC)c4ccccc34)ccn2)ccc1C(=O)N[C@@H](C)CN1CCOCC1 [17(v), 4-[[4-[[4-[[5-tert-butyl-3-(methanesulfonamido)-2-methoxy-phenyl]carbamoylamino]-1-naphthyl]oxy]-2-pyridyl]amino]-2-methoxy-N-[(1S)-1-methyl-2-morpholino-ethyl]benzamide]	34.4	–	–	–
–	–	–	COc1cc(Nc2cc(Oc3ccc(NC(=O)Nc4cc(C(C)(C)C)cc(NS(C)(=O)=O)c4OC)c4ccccc34)ccn2)ccc1C(=O)NCCCCN1CCOCC1 [17(y), 4-[[4-[[4-[[5-tert-butyl-3-(methanesulfonamido)-2-methoxy-phenyl]carbamoylamino]-1-naphthyl]oxy]-2-pyridyl]amino]-2-methoxy-N-(4-morpholinobutyl)benzamide]	70.8	–	–	–
–	–	–	COc1cc(Nc2cc(Oc3ccc(NC(=O)Nc4cc(C(C)(C)C)cc(NS(C)(=O)=O)c4OC)c4ccccc34)ccn2)ccc1C(=O)NCCN1CCN(CCO)CC1 [17(z), 4-[[4-[[4-[[5-tert-butyl-3-(methanesulfonamido)-2-methoxy-phenyl]carbamoylamino]-1-naphthyl]oxy]-2-pyridyl]amino]-N-[2-[4-(2-hydroxyethyl)piperazin-1-yl]ethyl]-2-methoxy-benzamide]	69.7	102.9	70.9	2.0
0.02	0.02	0.172	COc1cc(Nc2cc(Oc3ccc(NC(=O)Nc4cc(C(C)(C)C)cc(NS(C)(=O)=O)c4OC)c4ccccc34)ccn2)ccc1C(=O)NCCN1CCOCC1 [Example 2, 4-((4-((4-(3-(5-(tert-Butyl)-2-methoxy-3-(methylsulfonamido)phenyl)ureido)naphthalen-1-yl)oxy)pyridin-2-yl)amino)-2-methoxy-N-(2-morpholinoethyl)benzamide]	48	–	–	–
